pIC50: −log10 of the molar value.

Holding throughout (type): biochemical
Test [1] concerns the target recombinant human DPPIV (rhDPPIV) (Homo sapiens (Human), UniProt P27487). Briefly: DPPIV enzymatic activity assay. The note with it: Table 3B.
The target in test [2] is recombinant human DPP9 (rhDPP9) (Homo sapiens (Human), UniProt Q86TI2). Briefly: Inhibition of DPP9 activity, 10 ng rhDPP9, H-Gly-Pro-AMC. The note with it: Table 3B.
The target of test [3] is recombinant human FAPα (rhFAPα) (Homo sapiens (Human), UniProt Q12884). Briefly: FAPα enzymatic exopeptidase (dipeptidase) activity assay, Z-Gly-Pro-AMC. To be noted: for inhibition at 1 µM: 1 μM test compound, exopeptidase, Table 3B, read-out: rhFAPα (% exo inh @ 1 μM).
Sequence of recombinant human FAPα (rhFAPα) (Q12884 whole entry): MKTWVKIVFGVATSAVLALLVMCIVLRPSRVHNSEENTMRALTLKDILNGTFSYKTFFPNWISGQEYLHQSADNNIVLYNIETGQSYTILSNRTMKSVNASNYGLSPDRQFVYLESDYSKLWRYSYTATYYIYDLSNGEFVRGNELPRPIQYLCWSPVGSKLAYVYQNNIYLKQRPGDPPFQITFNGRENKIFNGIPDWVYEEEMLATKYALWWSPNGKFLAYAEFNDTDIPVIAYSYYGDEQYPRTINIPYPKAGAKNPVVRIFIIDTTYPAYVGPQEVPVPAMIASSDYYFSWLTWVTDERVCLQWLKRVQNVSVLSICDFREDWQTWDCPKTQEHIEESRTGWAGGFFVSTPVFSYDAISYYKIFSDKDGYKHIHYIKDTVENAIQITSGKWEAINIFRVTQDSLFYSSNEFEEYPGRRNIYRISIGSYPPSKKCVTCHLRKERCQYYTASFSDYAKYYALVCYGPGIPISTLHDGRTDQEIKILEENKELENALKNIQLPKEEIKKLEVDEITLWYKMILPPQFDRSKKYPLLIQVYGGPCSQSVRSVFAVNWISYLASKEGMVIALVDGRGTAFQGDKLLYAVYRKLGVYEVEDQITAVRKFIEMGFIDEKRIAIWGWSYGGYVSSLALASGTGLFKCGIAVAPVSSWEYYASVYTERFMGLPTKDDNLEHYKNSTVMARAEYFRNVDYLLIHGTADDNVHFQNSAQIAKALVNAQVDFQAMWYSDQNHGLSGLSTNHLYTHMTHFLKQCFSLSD

Sequence of recombinant human DPP9 (rhDPP9) (Q86TI2 whole entry): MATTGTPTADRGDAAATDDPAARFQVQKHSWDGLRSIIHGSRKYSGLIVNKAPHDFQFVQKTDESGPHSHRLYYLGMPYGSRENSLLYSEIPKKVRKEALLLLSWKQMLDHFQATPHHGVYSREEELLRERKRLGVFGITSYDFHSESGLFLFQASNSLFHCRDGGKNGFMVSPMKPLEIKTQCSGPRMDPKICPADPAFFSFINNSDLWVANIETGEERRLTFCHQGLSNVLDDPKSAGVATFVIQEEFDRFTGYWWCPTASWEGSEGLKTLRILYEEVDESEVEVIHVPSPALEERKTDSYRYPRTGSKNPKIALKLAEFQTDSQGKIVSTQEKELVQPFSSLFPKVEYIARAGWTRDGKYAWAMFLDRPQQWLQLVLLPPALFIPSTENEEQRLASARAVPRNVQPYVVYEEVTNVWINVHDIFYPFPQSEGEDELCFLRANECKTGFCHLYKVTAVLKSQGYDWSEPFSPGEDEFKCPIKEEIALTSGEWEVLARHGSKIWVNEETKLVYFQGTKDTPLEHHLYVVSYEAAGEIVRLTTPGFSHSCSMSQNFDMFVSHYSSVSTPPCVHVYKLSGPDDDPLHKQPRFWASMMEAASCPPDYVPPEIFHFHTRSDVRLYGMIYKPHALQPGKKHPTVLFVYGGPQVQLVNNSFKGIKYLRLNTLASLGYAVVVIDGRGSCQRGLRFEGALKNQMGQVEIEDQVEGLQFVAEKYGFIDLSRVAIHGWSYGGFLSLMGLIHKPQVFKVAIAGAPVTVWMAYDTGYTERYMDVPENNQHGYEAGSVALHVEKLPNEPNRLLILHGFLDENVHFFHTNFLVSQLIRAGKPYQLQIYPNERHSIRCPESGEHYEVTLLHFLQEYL
Sequence of recombinant human DPPIV (rhDPPIV) (P27487 whole entry): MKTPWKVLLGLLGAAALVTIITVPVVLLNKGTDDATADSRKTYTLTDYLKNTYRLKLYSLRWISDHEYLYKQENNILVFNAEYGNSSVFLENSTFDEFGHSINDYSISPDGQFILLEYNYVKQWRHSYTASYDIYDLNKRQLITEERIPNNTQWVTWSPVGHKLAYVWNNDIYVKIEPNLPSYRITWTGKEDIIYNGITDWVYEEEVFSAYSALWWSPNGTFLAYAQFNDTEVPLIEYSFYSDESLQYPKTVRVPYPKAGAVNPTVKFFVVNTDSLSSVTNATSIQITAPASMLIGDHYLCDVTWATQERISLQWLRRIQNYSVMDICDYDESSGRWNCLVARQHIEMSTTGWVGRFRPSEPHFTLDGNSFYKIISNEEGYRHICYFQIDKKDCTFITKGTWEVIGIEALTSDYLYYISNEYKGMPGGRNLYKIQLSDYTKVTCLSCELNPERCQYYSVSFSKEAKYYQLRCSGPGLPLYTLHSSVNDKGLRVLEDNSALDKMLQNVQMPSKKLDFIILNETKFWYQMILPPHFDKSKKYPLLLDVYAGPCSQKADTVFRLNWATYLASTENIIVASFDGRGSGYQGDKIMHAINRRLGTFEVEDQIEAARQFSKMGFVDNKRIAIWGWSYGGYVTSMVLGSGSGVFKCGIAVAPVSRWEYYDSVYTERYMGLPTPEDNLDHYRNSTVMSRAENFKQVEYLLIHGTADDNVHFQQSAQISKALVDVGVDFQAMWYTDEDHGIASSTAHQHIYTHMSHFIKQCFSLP

The pIC50 is the negative decadic logarithm of the IC50, by convention in mol/L. For the molecule `N#C[C@@H]1CC(F)(F)CN1C(=O)CNC(=O)c1ccnc2ccc(-c3ccc(=O)[nH]c3)cc12` [Compound 17, (S)—N-(2-(2-cyano-4,4-difluoropyrrolidin-1-yl)-2-oxoethyl)-6-(6-oxo-1,6-dihydropyridin-3-yl)quinoline-4-carboxamide], the pIC50 in test [1] was less than 5.00; in test [2], greater than 6.00.
For `CC(C)C/C=C/c1ccc2nccc(C(=O)NCC(=O)N3CC(F)(F)C[C@H]3C#N)c2c1` [Compound 13, (S,E)-N-(2-(2-cyano-4,4-difluoropyrrolidin-1-yl)-2-oxoethyl)-6-(4-methylpent-1-en-1-yl)quinoline-4-carboxamide], the pIC50 in test [1] was less than 5.00; in test [2] it was greater than 6.00.
The like results for `N#C[C@@H]1CC(F)(F)CN1C(=O)CNC(=O)c1ccnc2ccc(-c3ccc4c(c3)CCN4)cc12` [Compound 12, (S)—N-(2-(2-cyano-4,4-difluoropyrrolidin-1-yl)-2-oxoethyl)-6-(indolin-5-yl)quinoline-4-carboxamide] were, in that order, less than 5.00 and greater than 6.00.
Consider `N#C[C@@H]1CC(F)(F)CN1C(=O)CNC(=O)c1ccnc2ccc(-c3ccc(OC(F)(F)F)cc3)cc12` [Compound 31], for which the pIC50 is less than 5.00 in test [1] and greater than 6.00 in test [2].
The matching figures for `N#C[C@@H]1CC(F)(F)CN1C(=O)CNC(=O)c1ccnc2ccc(/C=C/c3ccccc3)cc12` [Compound 14, (S,E)-N-(2-(2-cyano-4,4-difluoropyrrolidin-1-yl)-2-oxoethyl)-6-styrylquinoline-4-carboxamide]: less than 5.00 and greater than 6.00.
The like results for `Cn1ccc2cc(-c3ccc4nccc(C(=O)NCC(=O)N5CC(F)(F)C[C@H]5C#N)c4c3)ccc21` [Compound 8, (S)—N-(2-(2-cyano-4,4-difluoropyrrolidin-1-yl)-2-oxoethyl)-6-(1-methyl-1H-indol-5-yl)quinoline-4-carboxamide] were, in that order, 5.00 to 6.00 and greater than 6.00.
The like results for `N#C[C@@H]1CC(F)(F)CN1C(=O)CNC(=O)c1ccnc2ccc(/C=C/c3ccc4c(c3)CCN4)cc12` [Compound 115] were, in that order, less than 5.00 and greater than 6.00.
On to `CN1CCN(Cc2ccc(-c3ccc4nccc(C(=O)NCC(=O)N5CC(F)(F)C[C@H]5C#N)c4c3)cc2)CC1` [Compound 32], for which the inhibition at 1 µM in test [3] is greater than 50%. Further, the pIC50 in test [1] is less than 5.00.
`COC(=O)/C=C/c1ccc2nccc(C(=O)NCC(=O)N3CC(F)(F)C[C@H]3C#N)c2c1` [Compound 22]: the negative-log IC50 (pIC50) is less than 5.00 in test [1] and greater than 6.00 in test [2].
The matching figures for `CNC(=O)c1ccc(-c2ccc3nccc(C(=O)NCC(=O)N4CC(F)(F)C[C@H]4C#N)c3c2)cc1` [Compound 100]: less than 5.00 and greater than 6.00.
Take `N#C[C@@H]1CC(F)(F)CN1C(=O)CNC(=O)c1ccnc2ccc(-c3ccc4c(c3)CNC4=O)cc12` [Compound 104]: the negative logarithm of the IC50 (pIC50) in test [1] and in test [2] was greater than 6.00 in each case.
As for `N#C[C@@H]1CC(F)(F)CN1C(=O)CNC(=O)c1ccnc2ccc(-c3cccc4c3CCNC4=O)cc12` [Compound 109], the figures for the pIC50 in test [1] and in test [2] were less than 5.00 and greater than 6.00, respectively.
The like results for `N#C[C@@H]1CC(F)(F)CN1C(=O)CNC(=O)c1ccnc2ccc(-c3cccnc3)cc12` [Compound 5, (S)—N-(2-(2-cyano-4,4-difluoropyrrolidin-1-yl)-2-oxoethyl)-6-(pyridin-3-yl)quinoline-4-carboxamide] were, in that order, less than 5.00 and greater than 6.00.
In the case of `CNC(=O)c1ccc(-c2ccc3nccc(C(=O)NCC(=O)N4CC(F)(F)C[C@H]4C#N)c3c2)cc1F` [Compound 116], the results for the pIC50 in test [1] and in test [2] were less than 5.00 and greater than 6.00, respectively.
For `N#C[C@@H]1CC(F)(F)CN1C(=O)CNC(=O)c1ccnc2ccc(-c3ccc4[nH]ncc4c3)cc12` [Compound 101], in test [3], the pIC50 was greater than 6.00 and the inhibition at 1 µM was greater than 50%. Further, the pIC50 in test [2] was greater than 6.00.
Turning to `CN(C)c1ccc2cc(-c3ccc4nccc(C(=O)NCC(=O)N5CC(F)(F)C[C@H]5C#N)c4c3)ccc2c1` [Compound 15, (S)—N-(2-(2-cyano-4,4-difluoropyrrolidin-1-yl)-2-oxoethyl)-6-(6-(dimethylamino)naphthalen-2-yl)quinoline-4-carboxamide], the pIC50 in test [1] was less than 5.00; in test [2] it was greater than 6.00.
The matching figures for `CNC(=O)c1cccc(-c2ccc3nccc(C(=O)NCC(=O)N4CC(F)(F)C[C@H]4C#N)c3c2)c1` [Compound 102]: less than 5.00 and greater than 6.00.
The like results for `Cn1cc(-c2ccc3nccc(C(=O)NCC(=O)N4CC(F)(F)C[C@H]4C#N)c3c2)cn1` [Compound 10, (S)—N-(2-(2-cyano-4,4-difluoropyrrolidin-1-yl)-2-oxoethyl)-6-(1-methyl-1H-pyrazol-4-yl)quinoline-4-carboxamide] were, in that order, less than 5.00 and greater than 6.00.
The matching figures for `COCCOc1ccc(-c2ccc3nccc(C(=O)NCC(=O)N4CC(F)(F)C[C@H]4C#N)c3c2)cn1` [Compound 36]: less than 5.00 and greater than 6.00.
Take `COc1ccc(-c2ccc3nccc(C(=O)NCC(=O)N4CC(F)(F)C[C@H]4C#N)c3c2)cn1` [Compound 33]: the pIC50 in test [3] and in test [2] was greater than 6.00 in each case. Also, the inhibition at 1 µM in test [3] is greater than 50%.
Turning to `CC(C)(C)c1ccc(-c2ccc3nccc(C(=O)NCC(=O)N4CC(F)(F)C[C@H]4C#N)c3c2)cc1` [Compound 7, (S)-6-(4-(tert-butyl)phenyl)-N-(2-(2-cyano-4,4-difluoropyrrolidin-1-yl)-2-oxoethyl)quinoline-4-carboxamide], the results for the negative logarithm of the IC50 (pIC50) in test [1] and in test [2] were less than 5.00 and greater than 6.00, respectively.
On to `N#C[C@@H]1CC(F)(F)CN1C(=O)CNC(=O)c1ccnc2ccc(-c3c[nH]c4ccccc34)cc12` [Compound 103], for which, in test [3], the pIC50 is greater than 6.00 and the inhibition at 1 µM was greater than 50%. In test [2], the pIC50 is greater than 6.00.
As for `N#C[C@@H]1CC(F)(F)CN1C(=O)CNC(=O)c1ccnc2ccc(-c3ccncc3)cc12` [Compound 6, (S)—N-(2-(2-cyano-4,4-difluoropyrrolidin-1-yl)-2-oxoethyl)-6-(pyridin-4-yl)quinoline-4-carboxamide], the pIC50 in test [1] is less than 5.00; in test [2] it was greater than 6.00.
With `CC(=O)Nc1ccc(-c2ccc3nccc(C(=O)NCC(=O)N4CC(F)(F)C[C@H]4C#N)c3c2)cc1` [Compound 97], the pIC50 is less than 5.00 in test [1] and greater than 6.00 in test [2].
Turning to `COCCOc1ccc(-c2ccc3nccc(C(=O)NCC(=O)N4CC(F)(F)C[C@H]4C#N)c3c2)cc1` [Compound 35], in test [3], the pIC50 was greater than 6.00 and the inhibition at 1 µM was greater than 50%. For the same molecule, the pIC50 in test [2] is greater than 6.00.
Consider `N#C[C@@H]1CC(F)(F)CN1C(=O)CNC(=O)c1ccnc2ccc(-c3cccc4c3CCC(=O)N4)cc12` [Compound 108], for which the pIC50 in test [1] is less than 5.00; in test [2], greater than 6.00.
On to `N#C[C@@H]1CC(F)(F)CN1C(=O)CNC(=O)c1ccnc2ccc(-c3ccc(C4CC4)nc3)cc12` [Compound 25], for which, in test [3], the pIC50 was greater than 6.00 and the inhibition at 1 µM is greater than 50%. For the same molecule, the pIC50 in test [2] is greater than 6.00.
As to `N#C[C@@H]1CC(F)(F)CN1C(=O)CNC(=O)c1ccnc2ccc(-c3ccc4c(c3)CCNC4=O)cc12` [Compound 18, (S)—N-(2-(2-cyano-4,4-difluoropyrrolidin-1-yl)-2-oxoethyl)-6-(1-oxo-1,2,3,4-tetrahydroisoquinolin-6-yl)quinoline-4-carboxamide], the pIC50 in test [1] and in test [2] was greater than 6.00 throughout.
Take `CC(C)Oc1ccc(-c2ccc3nccc(C(=O)NCC(=O)N4CC(F)(F)C[C@H]4C#N)c3c2)cn1` [Compound 34]: the pIC50 in test [3] and in test [2] was greater than 6.00 each time. Besides, the inhibition at 1 µM in test [3] is greater than 50%.
As to `N#C[C@@H]1CC(F)(F)CN1C(=O)CNC(=O)c1ccnc2ccc(-c3ccc4c(c3)OCCO4)cc12` [Compound 24], in test [3], the pIC50 is greater than 6.00 and the inhibition at 1 µM is greater than 50%. Also, the pIC50 in test [2] is greater than 6.00.
For the molecule `N#C[C@@H]1CC(F)(F)CN1C(=O)CNC(=O)c1ccnc2ccc(-c3ccc4c(c3)CC(=O)N4)cc12` [Compound 106], in test [3], the pIC50 was greater than 6.00 and the inhibition at 1 µM is greater than 50%. The pIC50 in test [2] is greater than 6.00.
Consider `CC(=O)Nc1cccc(-c2ccc3nccc(C(=O)NCC(=O)N4CC(F)(F)C[C@H]4C#N)c3c2)c1` [Compound 98], for which the pIC50 in test [1] was less than 5.00; in test [2], greater than 6.00.
The matching figures for `N#C[C@@H]1CC(F)(F)CN1C(=O)CNC(=O)c1ccnc2ccc(-c3ccc4[nH]ccc4c3)cc12` [Compound 9, (S)—N-(2-(2-cyano-4,4-difluoropyrrolidin-1-yl)-2-oxoethyl)-6-(1H-indol-5-yl)quinoline-4-carboxamide]: less than 5.00 and greater than 6.00.
Consider `N#C[C@@H]1CC(F)(F)CN1C(=O)CNC(=O)c1ccnc2ccc(/C=C/c3ccc4c(c3)CCC(=O)N4)cc12` [Compound 37], for which, in test [3], the pIC50 was greater than 6.00 and the inhibition at 1 µM is greater than 50%. Further, the pIC50 in test [2] was greater than 6.00.
On to `N#C[C@@H]1CC(F)(F)CN1C(=O)CNC(=O)c1ccnc2ccc(/C=C/c3ccc4ncccc4c3)cc12` [Compound 105], for which, in test [3], the inhibition at 1 µM is greater than 50%.
On to `N#C[C@@H]1CC(F)(F)CN1C(=O)CNC(=O)c1ccnc2ccc(-c3cnn(C4CC4)c3)cc12` [Compound 11, (S)—N-(2-(2-cyano-4,4-difluoropyrrolidin-1-yl)-2-oxoethyl)-6-(1-cyclopropyl-1H-pyrazol-4-yl)quinoline-4-carboxamide], for which the pIC50 in test [1] is 5.00 to 6.00; in test [2], greater than 6.00.
In the case of `Cc1ccc(-c2ccc3nccc(C(=O)NCC(=O)N4CC(F)(F)C[C@H]4C#N)c3c2)cn1` [Compound 23], in test [3], the pIC50 is greater than 6.00 and the inhibition at 1 µM is greater than 50%. Moreover, the pIC50 in test [2] was greater than 6.00.
On to `N#C[C@@H]1CC(F)(F)CN1C(=O)CNC(=O)c1ccnc2ccc(/C=C/c3ccccn3)cc12` [Compound 21], for which the pIC50 in test [1] was less than 5.00; in test [2], greater than 6.00.

The values are drawn from patent US11504364B2, “Inhibitors of fibroblast activation protein” (Praxis Biotech LLC, priority 2018, dated 2022).
